From paper PMC6893898, “Receptor Interaction Profiles of 4-Alkoxy-Substituted 2,5-Dimethoxyphenethylamines and Related Amphetamines” (Frontiers in Pharmacology, 2019)

Legend:
[1] = target: hDAT (Homo sapiens, UniProt Q01959); test: Radioligand binding, DAT ([3H]WIN35,428); set-up: expressed in transfected cells; host or cells: HEK 293 (membrane preparation)
[2] = target: T1, 5-HT1A receptor (Homo sapiens, UniProt P08908); test: Radioligand binding, 5-HT1A receptor ([3H]8-OH-DPAT)
T1 construct: expressed in transfected cells; host or cells: HEK 293 (membrane preparation)
T1 sequence (P08908 1-422): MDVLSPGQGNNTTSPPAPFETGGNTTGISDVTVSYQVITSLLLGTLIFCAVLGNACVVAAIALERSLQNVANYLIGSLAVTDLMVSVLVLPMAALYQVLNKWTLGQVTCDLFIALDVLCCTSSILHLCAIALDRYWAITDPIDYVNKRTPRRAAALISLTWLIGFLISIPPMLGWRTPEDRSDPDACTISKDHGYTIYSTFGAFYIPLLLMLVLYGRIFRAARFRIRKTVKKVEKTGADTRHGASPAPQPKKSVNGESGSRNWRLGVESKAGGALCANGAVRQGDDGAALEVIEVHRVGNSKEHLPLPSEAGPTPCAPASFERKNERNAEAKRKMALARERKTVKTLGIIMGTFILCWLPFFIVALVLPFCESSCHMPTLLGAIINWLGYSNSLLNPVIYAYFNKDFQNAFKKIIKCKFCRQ

[3] = target: T2, human 5-HT2B receptor (Homo sapiens, UniProt P41595); test: Activity at the 5-HT2B receptor (FLIPR calcium, HEK 293 cells); assay type: cell-based; conditions: for Emax: HEK293, relative to 5-HT = 100%, read-out: h5-HT2B Activation efficacy max ± SD
T2 construct: expressed in transfected cells; host or cells: HEK 293
T2 sequence (P41595 whole entry): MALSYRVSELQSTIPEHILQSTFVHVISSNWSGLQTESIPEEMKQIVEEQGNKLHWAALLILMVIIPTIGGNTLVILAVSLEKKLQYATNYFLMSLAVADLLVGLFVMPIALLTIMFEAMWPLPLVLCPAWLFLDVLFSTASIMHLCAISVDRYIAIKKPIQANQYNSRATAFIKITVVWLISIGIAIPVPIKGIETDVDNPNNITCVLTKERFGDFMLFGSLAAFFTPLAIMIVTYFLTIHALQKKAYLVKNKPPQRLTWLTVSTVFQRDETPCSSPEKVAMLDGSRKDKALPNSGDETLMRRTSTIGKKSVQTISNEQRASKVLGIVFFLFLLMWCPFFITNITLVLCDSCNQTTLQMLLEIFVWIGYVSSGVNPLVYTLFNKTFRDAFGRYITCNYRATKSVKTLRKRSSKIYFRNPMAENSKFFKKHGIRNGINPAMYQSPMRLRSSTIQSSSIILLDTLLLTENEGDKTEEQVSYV
Description: Activity at the 5-HT2B receptor was examined as previously described ([Luethi et al., 2018]). In summary, HEK 293 cells expressing the human 5-HT2B receptor were seeded at a density of 50,000 cells per well in 96-well poly-D-lysine-coated plates overnight at 37°C. The cells were then incubated in growth medium consisting of high glucose Dulbecco’s modified Eagle’s medium (DMEM) (Invitrogen, Zug, Switzerland), 10% fetal calf serum (non-dialyzed, heat-inactivated), 250 mg/l Geneticin and 10 ml/l PenStrep (Gibco), overnight at 37°C. After removal of the growth medium via snap inversion, calcium indicator Fluo-4-solution (100 µl) was injected into each well (Molecular Probes, Eugene, OR, USA) and incubated for 45 min at 31°C. Afterwards, the Fluo-4 solution was removed (snap inversion) and a further 100 µl of the Fluo-4 solution was added and incubated (45 min, 31°C). Thereafter, using the EMBLA cell washer, the cells were washed just before testing with HBSS and 20 mM HEPES and exposed to 100 µl of assay buffer. The well plate was positioned in the FLIPR and while online, 25 µl of the test compounds diluted in assay buffer were added. Concentration-response curves were calculated using nonlinear regression, and EC50 values were obtained. The maximal activity at the receptors was calculated relative to 5-HT activity which was defined as 100%.

[4] = target: hNET (Homo sapiens, UniProt P23975); test: Radioligand binding, NET (N-methyl-[3H]nisoxetine); set-up: expressed in transfected cells; host or cells: HEK 293 (membrane preparation)
hNET, sequence (P23975 whole entry): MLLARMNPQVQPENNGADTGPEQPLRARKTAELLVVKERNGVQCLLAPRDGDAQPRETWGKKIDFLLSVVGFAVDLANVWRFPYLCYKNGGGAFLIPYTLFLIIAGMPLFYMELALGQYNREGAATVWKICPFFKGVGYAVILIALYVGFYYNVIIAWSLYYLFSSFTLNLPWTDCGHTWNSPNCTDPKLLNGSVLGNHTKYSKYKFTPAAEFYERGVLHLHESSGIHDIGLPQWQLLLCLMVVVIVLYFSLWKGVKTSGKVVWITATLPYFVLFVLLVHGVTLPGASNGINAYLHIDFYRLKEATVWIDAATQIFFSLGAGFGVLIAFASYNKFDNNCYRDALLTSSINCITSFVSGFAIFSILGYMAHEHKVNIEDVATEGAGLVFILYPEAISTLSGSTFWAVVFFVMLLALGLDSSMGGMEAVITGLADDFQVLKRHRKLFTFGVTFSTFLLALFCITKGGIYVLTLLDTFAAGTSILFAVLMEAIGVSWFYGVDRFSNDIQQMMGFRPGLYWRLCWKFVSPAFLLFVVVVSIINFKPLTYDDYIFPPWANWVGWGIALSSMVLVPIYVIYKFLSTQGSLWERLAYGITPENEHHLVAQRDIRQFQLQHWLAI

[5] = target: T3, 5-HT2C receptor (Homo sapiens, UniProt P28335); test: biochemical; assay type: binding; conditions: for Ki: [3H]mesulgerine, read-out: h5-HT2C Receptor binding Ki ± SD
T3 construct: expressed in transfected cells; host or cells: HEK 293 (membrane preparation)
T3 sequence (P28335 33-458): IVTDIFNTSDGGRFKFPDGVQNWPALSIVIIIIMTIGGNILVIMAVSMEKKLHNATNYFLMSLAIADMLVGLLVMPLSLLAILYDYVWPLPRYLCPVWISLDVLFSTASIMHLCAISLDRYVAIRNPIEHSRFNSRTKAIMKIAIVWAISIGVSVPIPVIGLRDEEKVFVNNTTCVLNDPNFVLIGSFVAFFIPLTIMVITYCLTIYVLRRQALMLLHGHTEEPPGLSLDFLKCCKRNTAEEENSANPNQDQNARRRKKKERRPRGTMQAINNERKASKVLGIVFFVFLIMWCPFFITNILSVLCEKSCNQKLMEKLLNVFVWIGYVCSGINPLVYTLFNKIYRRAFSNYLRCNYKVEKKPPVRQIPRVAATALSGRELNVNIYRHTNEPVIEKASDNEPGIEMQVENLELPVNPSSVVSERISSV

[6] = target: T4, α2A adrenergic receptor (Homo sapiens, UniProt P08913); test: Radioligand binding, α2A adrenergic receptor ([3H]rauwolscine)
T4 construct: expressed in transfected cells; host or cells: Chinese hamster lung cell line (membrane preparation)
T4 sequence (P08913 1-465): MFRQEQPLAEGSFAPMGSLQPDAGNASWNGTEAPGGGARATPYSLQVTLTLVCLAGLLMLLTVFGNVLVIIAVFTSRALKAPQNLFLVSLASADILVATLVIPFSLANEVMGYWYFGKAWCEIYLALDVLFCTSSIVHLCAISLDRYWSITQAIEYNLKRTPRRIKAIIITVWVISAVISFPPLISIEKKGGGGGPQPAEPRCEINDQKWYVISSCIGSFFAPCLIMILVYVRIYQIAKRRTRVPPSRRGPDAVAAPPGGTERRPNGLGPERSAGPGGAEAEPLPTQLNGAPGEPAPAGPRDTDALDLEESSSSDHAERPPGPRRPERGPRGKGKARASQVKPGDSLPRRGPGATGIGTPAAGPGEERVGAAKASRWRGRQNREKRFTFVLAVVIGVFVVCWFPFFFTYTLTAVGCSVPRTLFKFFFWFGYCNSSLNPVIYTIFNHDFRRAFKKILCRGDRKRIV

[7] = target: T5, rat TAAR1 (Rattus norvegicus, UniProt Q923Y9); test: Radioligand binding, rat TAAR1 ([3H]RO5166017)
T5 construct: expressed in transfected cells; host or cells: HEK 293 (membrane preparation)
T5 sequence (Q923Y9 whole entry): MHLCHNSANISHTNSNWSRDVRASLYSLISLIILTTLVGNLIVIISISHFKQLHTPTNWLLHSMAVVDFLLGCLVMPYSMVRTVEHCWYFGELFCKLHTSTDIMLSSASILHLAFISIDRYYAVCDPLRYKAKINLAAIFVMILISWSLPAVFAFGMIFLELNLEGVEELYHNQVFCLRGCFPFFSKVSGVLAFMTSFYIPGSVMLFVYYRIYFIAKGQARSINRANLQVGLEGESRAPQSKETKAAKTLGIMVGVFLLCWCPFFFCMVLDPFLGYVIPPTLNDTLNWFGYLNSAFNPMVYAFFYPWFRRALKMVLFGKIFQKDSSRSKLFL

[8] = target: hSERT (Homo sapiens, UniProt P31645); test: Radioligand binding, SERT ([3H]citalopram); set-up: expressed in transfected cells; host or cells: HEK 293 (membrane preparation)
hSERT, sequence (P31645 whole entry): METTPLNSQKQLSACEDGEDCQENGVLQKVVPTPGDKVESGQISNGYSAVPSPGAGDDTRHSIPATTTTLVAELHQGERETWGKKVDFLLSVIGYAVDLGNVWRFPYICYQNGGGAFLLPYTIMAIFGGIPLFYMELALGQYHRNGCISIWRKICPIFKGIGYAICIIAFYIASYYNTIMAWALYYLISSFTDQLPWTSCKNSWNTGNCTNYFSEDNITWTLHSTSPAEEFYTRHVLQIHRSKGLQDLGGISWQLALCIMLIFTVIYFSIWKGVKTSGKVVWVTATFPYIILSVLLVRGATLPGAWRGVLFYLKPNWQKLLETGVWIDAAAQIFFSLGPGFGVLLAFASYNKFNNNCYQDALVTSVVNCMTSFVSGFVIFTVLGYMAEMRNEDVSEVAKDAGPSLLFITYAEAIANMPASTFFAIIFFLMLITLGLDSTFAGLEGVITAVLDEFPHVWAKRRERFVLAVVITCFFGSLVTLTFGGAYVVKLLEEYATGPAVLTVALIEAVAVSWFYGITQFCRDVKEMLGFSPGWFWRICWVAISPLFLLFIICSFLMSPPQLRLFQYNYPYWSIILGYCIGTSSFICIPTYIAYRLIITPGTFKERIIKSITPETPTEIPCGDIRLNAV

hDAT, sequence (Q01959 whole entry): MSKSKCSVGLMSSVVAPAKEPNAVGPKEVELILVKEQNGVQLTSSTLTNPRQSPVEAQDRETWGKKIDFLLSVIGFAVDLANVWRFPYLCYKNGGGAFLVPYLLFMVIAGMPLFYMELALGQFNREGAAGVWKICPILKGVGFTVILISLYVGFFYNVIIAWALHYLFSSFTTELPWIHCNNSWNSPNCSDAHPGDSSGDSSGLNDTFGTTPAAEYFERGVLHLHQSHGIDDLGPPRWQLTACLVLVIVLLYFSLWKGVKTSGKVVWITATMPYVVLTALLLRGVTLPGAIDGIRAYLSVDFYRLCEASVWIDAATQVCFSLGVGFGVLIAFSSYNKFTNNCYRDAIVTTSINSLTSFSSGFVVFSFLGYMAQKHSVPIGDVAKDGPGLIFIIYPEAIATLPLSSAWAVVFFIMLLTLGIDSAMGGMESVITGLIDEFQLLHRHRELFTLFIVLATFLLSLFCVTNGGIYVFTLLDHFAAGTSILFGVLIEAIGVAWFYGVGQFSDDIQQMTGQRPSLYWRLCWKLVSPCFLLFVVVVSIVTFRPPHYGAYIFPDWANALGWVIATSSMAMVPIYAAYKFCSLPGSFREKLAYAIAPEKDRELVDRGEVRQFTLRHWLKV

Row | Structure (SMILES) | Ki [1] [nM] | Ki [2] [nM] | EC50 [3] [nM] | Higher 5-HT2B activation potency compared to TMA-2 (19) [3] [fold] | Emax [3] [%] | Ki [4] [nM] | Enhancement of 5-HT2C binding affinity compared to TMA-2 (19) [5] [fold] | Ki [5] [nM] | Ki [6] [nM] | Higher rat TAAR1 affinity than TMA-2 (19) and MIPM (18) [7] [fold] | Ki [7] [nM] | Ki [8] [nM] | Reduction of 5-HT2C binding affinity compared to TMA-2 (19) [5] [fold] | Increase in 5-HT2B activation potency compared to 2C-O-21 (9) [3] [fold] | Increase in 5-HT2C binding affinity compared to MFEM (15) [5] [fold]
1 | C=CCOc1cc(OC)c(CC(C)N)cc1OC (centres unmarked) [MALM, 4-allyloxy-2,5-dimethoxyamphetamine] | > 8700 | > 5600 | 9.5 ± 3.3 | 28 | 85 to 101 | > 9700 | 6 | 900 ± 220 | > 4800 | 3 | 1100 ± 200 | > 8600 |  |  | 
2 | COc1cc(OC(C)C)c(OC)cc1CC(C)N (centres unmarked) [MIPM, 2,5-dimethoxy-4-isopropoxyamphetamine] | > 8700 | > 5600 | 180 ± 120 | 2 | 20 ± 14 | > 9700 |  | 9030 ± 2390 | > 4800 |  | 2900 ± 700 | > 8600 | 2 |  | 
3 | COc1cc(OCC(F)F)c(OC)cc1CCN [2C-O-21.5, 4-(2,2-difluoroethoxy)-2,5-dimethoxyphenethylamine] | > 8700 | 2900 ± 200 | 480 ± 260 |  | 28 ± 23 | > 9700 |  | 4200 ± 1500 | 1900 ± 100 |  | 250 ± 20 | > 8600 |  | 2 | 
4 | C=C(C)COc1cc(OC)c(CC(C)N)cc1OC (centres unmarked) [MMALM, 2,5-dimethoxy-4-methallyloxyamphetamine] | > 8700 |  | 29 ± 13 | 9 | 85 to 101 | > 9700 | 18 | 290 ± 110 | 2400 ± 200 | 5 | 630 ± 150 | > 8600 |  |  | 
5 | COc1cc(OCC(F)F)c(OC)cc1CC(C)N (centres unmarked) [MDFEM, 4-(2,2-difluoroethoxy)-2,5-dimethoxyamphetamine] | > 8700 | > 5600 | 130 ± 80 |  | 21 ± 8 | > 9700 |  | 6700 ± 2400 | > 4800 |  | 1200 ± 200 | > 8600 |  |  | 2
6 | COc1cc(OCC(F)(F)F)c(OC)cc1CCN [2C-O-22, 2,5-dimethoxy-4-(2,2,2-trifluoroethoxy)phenethylamine] | > 8700 | 3300 ± 200 | 250 ± 10 |  | 28 ± 20 | > 9700 |  | 1900 ± 400 | 1800 ± 100 |  | 240 ± 60 | > 8600 |  | 4 | 
7 | COc1cc(OCC(F)(F)F)c(OC)cc1CC(C)N (centres unmarked) [MTFEM, 2,5-dimethoxy-4-(2,2,2-trifluoroethoxy)amphetamine] | > 8700 | > 5600 | 200 ± 30 |  | 5 | > 9700 |  | 2400 ± 800 | > 4800 |  | 1300 ± 100 | > 8600 |  |  | ~5
8 | COc1cc(OCCF)c(OC)cc1CCN [2C-O-21, 2,5-dimethoxy-4-(2-fluoroethoxy)phenethylamine] | > 8700 | 5500 | 900 ± 450 |  | 39 ± 26 | > 9700 |  | 3600 ± 1900 | 3600 ± 500 |  | 410 ± 40 | > 8600 |  |  | 
9 | COc1cc(OCCF)c(OC)cc1CC(C)N (centres unmarked) [MFEM, 2,5-dimethoxy-4-(2-fluoroethoxy)amphetamine] | > 8700 | > 5600 | 270 ± 210 |  | 41 ± 22 | > 9700 |  | 11000 ± 3000 | > 4800 |  | 1640 ± 300 | > 8600 |  |  | 
10 | COc1cc(OCc2ccccc2)c(OC)cc1CCN [2C-O-27, 4-benzyloxy-2,5-dimethoxyphenethylamine] | 6100 ± 400 | 2700 ± 100 | 480 ± 190 |  | 39 ± 16 | > 9700 |  | 110 ± 50 | 570 ± 30 |  | 21 ± 3 | > 8600 |  |  | 
11 | C=CCOc1cc(OC)c(CCN)cc1OC [2C-O-16, 4-allyloxy-2,5-dimethoxyphenethylamine] | > 8700 | 4500 ± 500 | 120 ± 70 |  | 42 ± 13 | > 9700 |  | 470 ± 40 | 620 ± 20 |  | 260 ± 70 | > 8600 |  |  | 
12 | C=C(C)COc1cc(OC)c(CCN)cc1OC [2C-O-3, 2,5-dimethoxy-4-methallyloxyphenethylamine] | > 8700 | 2700 ± 200 | 68 ± 21 |  | 50 ± 22 | > 9700 |  | 150 ± 30 | 180 ± 10 |  | 130 | > 8600 |  |  | 
13 | CCOc1cc(OC)c(CCN)cc1OC [2C-O-2, 2,5-dimethoxy-4-ethoxyphenethylamine] | > 8700 | 3600 ± 400 | 49 ± 44 |  | 85 to 101 | > 9700 |  | 2300 ± 1200 | 2600 ± 100 |  | 340 ± 70 | > 8600 |  |  | 
